# In PMC10287695, “Non-covalent inhibitors of thioredoxin glutathione reductase with schistosomicidal activity in vivo” (Nature Communications, 2023):
# Where “and” joins values, the source holds several entries; their conditions need not be identical. Identical values can stand only once.
# Tested on: TGR in newly transformed schistosomula (NTS)
# Experiment: TGR inhibition in NTS with TRFS-Green fluorescent probe;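 note: untreated reference is NTS exposed to TRFS-Green probe alone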
# Format: cell-based, S. mansoni
# Conditions: NTS, 1hr, 5 µM
# Method: TGR inhibition in NTS was assessed using a fluorescent probe TRFS-Green (Medchemexpress)[43]. NTS prepared as previously described and cultured in M199 supplemented with 5.5 mM D-glucose, penicillin-streptomycin and 5% heat inactivated fetal bovine serum were incubated at 37 °C in a clear bottom flat well plate in a 5% CO2 incubator overnight. […] NTS were further treated with TRFS-Green (10 µM) for additional 4 h and rinsed with M199 medium to remove residual TRFS-Green. Fluorescence images were obtained using Keyence BZ-X800. The quantification of fluorescence intensity upon the uptake of TRFS-Green by NTS was performed by a fluorescent microplate imager (BioTek Cytation3) (excitation, 438 nm; emission, 538 nm) hourly for 5 h and after 24 h.
Structure (SMILES),"TGR inhibition visualized by TRFS-Green, Average","TGR inhibition visualized by TRFS-Green, single replicate"
Cc1oc(C2CCCCC2)nc1CN[C@@H]1C[C@@H]2C[C@H]([C@H]1C)C2(C)C [C4 (8VP121-1)],12224.5,12022 and 12427
Cc1oc(C2CCCCC2)nc1C(=O)N[C@@H]1C[C@@H]2C[C@H]([C@H]1C)C2(C)C [C7 (8VP108)],12657,12650 and 12664

# Same assay, conditions: NTS, 1hr, 15 µM
Structure (SMILES),"TGR inhibition visualized by TRFS-Green, Average","TGR inhibition visualized by TRFS-Green, single replicate"
Cc1oc(C2CCCCC2)nc1CN[C@@H]1C[C@@H]2C[C@H]([C@H]1C)C2(C)C [C4 (8VP121-1)],11617.5,11812 and 11423
Cc1oc(C2CCCCC2)nc1C(=O)N[C@@H]1C[C@@H]2C[C@H]([C@H]1C)C2(C)C [C7 (8VP108)],10865,11062 and 10668

# Same assay, conditions: NTS, 1hr, 30 µM
Structure (SMILES),"TGR inhibition visualized by TRFS-Green, Average","TGR inhibition visualized by TRFS-Green, single replicate"
Cc1oc(C2CCCCC2)nc1CN[C@@H]1C[C@@H]2C[C@H]([C@H]1C)C2(C)C [C4 (8VP121-1)],10356,10371 and 10341
Cc1oc(C2CCCCC2)nc1C(=O)N[C@@H]1C[C@@H]2C[C@H]([C@H]1C)C2(C)C [C7 (8VP108)],10431.5,10627 and 10236

# Same assay, conditions: NTS, 2hr, 5 µM
Structure (SMILES),"TGR inhibition visualized by TRFS-Green, Average","TGR inhibition visualized by TRFS-Green, single replicate"
Cc1oc(C2CCCCC2)nc1CN[C@@H]1C[C@@H]2C[C@H]([C@H]1C)C2(C)C [C4 (8VP121-1)],19189,19355 and 19023
Cc1oc(C2CCCCC2)nc1C(=O)N[C@@H]1C[C@@H]2C[C@H]([C@H]1C)C2(C)C [C7 (8VP108)],18963,19690 and 18236

# Same assay, conditions: NTS, 2hr, 15 µM
Structure (SMILES),"TGR inhibition visualized by TRFS-Green, Average","TGR inhibition visualized by TRFS-Green, single replicate"
Cc1oc(C2CCCCC2)nc1CN[C@@H]1C[C@@H]2C[C@H]([C@H]1C)C2(C)C [C4 (8VP121-1)],17814.5,17877 and 17752
Cc1oc(C2CCCCC2)nc1C(=O)N[C@@H]1C[C@@H]2C[C@H]([C@H]1C)C2(C)C [C7 (8VP108)],17493,17993 and 16993

# Same assay, conditions: NTS, 2hr, 30 µM
Structure (SMILES),"TGR inhibition visualized by TRFS-Green, Average","TGR inhibition visualized by TRFS-Green, single replicate"
Cc1oc(C2CCCCC2)nc1CN[C@@H]1C[C@@H]2C[C@H]([C@H]1C)C2(C)C [C4 (8VP121-1)],13785,13959 and 13611
Cc1oc(C2CCCCC2)nc1C(=O)N[C@@H]1C[C@@H]2C[C@H]([C@H]1C)C2(C)C [C7 (8VP108)],16380.5,16170 and 16591

# Same assay, conditions: NTS, 3hr, 5 µM
Structure (SMILES),"TGR inhibition visualized by TRFS-Green, Average","TGR inhibition visualized by TRFS-Green, single replicate"
Cc1oc(C2CCCCC2)nc1CN[C@@H]1C[C@@H]2C[C@H]([C@H]1C)C2(C)C [C4 (8VP121-1)],24561,24110 and 25012
Cc1oc(C2CCCCC2)nc1C(=O)N[C@@H]1C[C@@H]2C[C@H]([C@H]1C)C2(C)C [C7 (8VP108)],32388.5,32805 and 31972

# Same assay, conditions: NTS, 3hr, 15 µM
Structure (SMILES),"TGR inhibition visualized by TRFS-Green, Average","TGR inhibition visualized by TRFS-Green, single replicate"
Cc1oc(C2CCCCC2)nc1CN[C@@H]1C[C@@H]2C[C@H]([C@H]1C)C2(C)C [C4 (8VP121-1)],22452,22972 and 21932
Cc1oc(C2CCCCC2)nc1C(=O)N[C@@H]1C[C@@H]2C[C@H]([C@H]1C)C2(C)C [C7 (8VP108)],28933.5,28944 and 28923

# Same assay, conditions: NTS, 3hr, 30 µM
Structure (SMILES),"TGR inhibition visualized by TRFS-Green, Average","TGR inhibition visualized by TRFS-Green, single replicate"
Cc1oc(C2CCCCC2)nc1CN[C@@H]1C[C@@H]2C[C@H]([C@H]1C)C2(C)C [C4 (8VP121-1)],19172,19108 and 19236
Cc1oc(C2CCCCC2)nc1C(=O)N[C@@H]1C[C@@H]2C[C@H]([C@H]1C)C2(C)C [C7 (8VP108)],28582,28060 and 29104

# Same assay, conditions: NTS, 4hr, 5 µM
Structure (SMILES),"TGR inhibition visualized by TRFS-Green, Average","TGR inhibition visualized by TRFS-Green, single replicate"
Cc1oc(C2CCCCC2)nc1CN[C@@H]1C[C@@H]2C[C@H]([C@H]1C)C2(C)C [C4 (8VP121-1)],26229,26469 and 25989
Cc1oc(C2CCCCC2)nc1C(=O)N[C@@H]1C[C@@H]2C[C@H]([C@H]1C)C2(C)C [C7 (8VP108)],35273.5,35655 and 34892

# Same assay, conditions: NTS, 4hr, 15 µM
Structure (SMILES),"TGR inhibition visualized by TRFS-Green, Average","TGR inhibition visualized by TRFS-Green, single replicate"
Cc1oc(C2CCCCC2)nc1CN[C@@H]1C[C@@H]2C[C@H]([C@H]1C)C2(C)C [C4 (8VP121-1)],23381.5,23782 and 22981
Cc1oc(C2CCCCC2)nc1C(=O)N[C@@H]1C[C@@H]2C[C@H]([C@H]1C)C2(C)C [C7 (8VP108)],29029,29202 and 28856

# Same assay, conditions: NTS, 4hr, 30 µM
Structure (SMILES),"TGR inhibition visualized by TRFS-Green, Average","TGR inhibition visualized by TRFS-Green, single replicate"
Cc1oc(C2CCCCC2)nc1CN[C@@H]1C[C@@H]2C[C@H]([C@H]1C)C2(C)C [C4 (8VP121-1)],19196,19157 and 19235
Cc1oc(C2CCCCC2)nc1C(=O)N[C@@H]1C[C@@H]2C[C@H]([C@H]1C)C2(C)C [C7 (8VP108)],28478.5,28833 and 28124

# Same assay, conditions: NTS, 5hr, 5 µM
Structure (SMILES),"TGR inhibition visualized by TRFS-Green, Average","TGR inhibition visualized by TRFS-Green, single replicate"
Cc1oc(C2CCCCC2)nc1CN[C@@H]1C[C@@H]2C[C@H]([C@H]1C)C2(C)C [C4 (8VP121-1)],27106,27097 and 27115
Cc1oc(C2CCCCC2)nc1C(=O)N[C@@H]1C[C@@H]2C[C@H]([C@H]1C)C2(C)C [C7 (8VP108)],39296,39469 and 39123

# Same assay, conditions: NTS, 5hr, 15 µM
Structure (SMILES),"TGR inhibition visualized by TRFS-Green, Average","TGR inhibition visualized by TRFS-Green, single replicate"
Cc1oc(C2CCCCC2)nc1CN[C@@H]1C[C@@H]2C[C@H]([C@H]1C)C2(C)C [C4 (8VP121-1)],23897.5,23926 and 23869
Cc1oc(C2CCCCC2)nc1C(=O)N[C@@H]1C[C@@H]2C[C@H]([C@H]1C)C2(C)C [C7 (8VP108)],32855.5,32828 and 32883

# Same assay, conditions: NTS, 5hr, 30 µM
Structure (SMILES),"TGR inhibition visualized by TRFS-Green, Average","TGR inhibition visualized by TRFS-Green, single replicate"
Cc1oc(C2CCCCC2)nc1CN[C@@H]1C[C@@H]2C[C@H]([C@H]1C)C2(C)C [C4 (8VP121-1)],21898.5,21774 and 22023
Cc1oc(C2CCCCC2)nc1C(=O)N[C@@H]1C[C@@H]2C[C@H]([C@H]1C)C2(C)C [C7 (8VP108)],29603,29933 and 29273

# Same assay, conditions: NTS, 24hr, 5 µM
Structure (SMILES),"TGR inhibition visualized by TRFS-Green, Average","TGR inhibition visualized by TRFS-Green, single replicate"
Cc1oc(C2CCCCC2)nc1CN[C@@H]1C[C@@H]2C[C@H]([C@H]1C)C2(C)C [C4 (8VP121-1)],29485,29989 and 28981
Cc1oc(C2CCCCC2)nc1C(=O)N[C@@H]1C[C@@H]2C[C@H]([C@H]1C)C2(C)C [C7 (8VP108)],44285,44288 and 44282

# Same assay, conditions: NTS, 24hr, 15 µM
Structure (SMILES),"TGR inhibition visualized by TRFS-Green, Average","TGR inhibition visualized by TRFS-Green, single replicate"
Cc1oc(C2CCCCC2)nc1CN[C@@H]1C[C@@H]2C[C@H]([C@H]1C)C2(C)C [C4 (8VP121-1)],27619.5,27128 and 28111
Cc1oc(C2CCCCC2)nc1C(=O)N[C@@H]1C[C@@H]2C[C@H]([C@H]1C)C2(C)C [C7 (8VP108)],35708,35593 and 35823

# Same assay, conditions: NTS, 24hr, 30 µM
Structure (SMILES),"TGR inhibition visualized by TRFS-Green, Average","TGR inhibition visualized by TRFS-Green, single replicate"
Cc1oc(C2CCCCC2)nc1CN[C@@H]1C[C@@H]2C[C@H]([C@H]1C)C2(C)C [C4 (8VP121-1)],25005.5,25040 and 24971
Cc1oc(C2CCCCC2)nc1C(=O)N[C@@H]1C[C@@H]2C[C@H]([C@H]1C)C2(C)C [C7 (8VP108)],33705.5,33980 and 33431
